Entries after “also recorded” stand apart in the source; their conditions may differ.
Key:
[1] = target: human recombinant His-tagged LC3B (Homo sapiens, UniProt Q9GZQ8); experiment: MST binding to human recombinant His-tagged LC3B; conditions: Table S1
Method: To measure the dissociation constants (Kd) of the peptides on human recombinant His-tagged LC3B protein, MST experiments were carried out on a Monolith NT.115^Pico instrument (see the Materials and Methods section for details).
A constant concentration of red-labelled LC3B (10 nM) was incubated with sixteen 1:1 serial dilutions of peptides (concentration details are consultable in the Supplementary Materials, Table S1). PBS-T (phosphate-buffered saline + 0.05% Tween™ 20), from NanoTemper Technologies, with 2.5% dimethyl sulfoxide (DMSO) (Product No. D8418; Sigma-Aldrich, Saint Louis, MO, USA) was used as buffer. After 15 min of incubation at room temperature, samples were loaded into standard capillaries (Product No. MO-K022; NanoTemper Technologies) and analyzed at 25 °C with 20% excitation power and medium MST power (40%) using the “Binding Affinity” mode available in the MO.Control v1.6 software (NanoTemper Technologies GmbH, München, Germany). Prior to Kd determination, peptide auto-fluorescence was assessed. Data analysis was performed using MO.Affinity Analysis v2.3 software (NanoTemper Technologies GmbH, München, Germany) applying the Kd model for fitting the binding curve, while the figures were generated using GraphPad Prism v8.0.2 software (GraphPad, Boston, MA, USA).
Two independent experiments were performed to determine the Kd value.
RA = Response Amplitude; SNR = Signal -to-Noise Ratio.

[2] = Peptide aggregation in MST capillaries; type: physicochemical
Method: This technique enables the determination of the dissociation constant (Kd) across a concentration range spanning from 1 picomolar (pM) to the millimolar (mM) level. The experimental conditions mirrored those in our previously published work. […] A constant concentration of red-labelled LC3B (10 nM) was incubated with sixteen 1:1 serial dilutions of peptides (concentration details are consultable in the Supplementary Materials, Table S1). PBS-T (phosphate-buffered saline + 0.05% Tween™ 20), from NanoTemper Technologies, with 2.5% dimethyl sulfoxide (DMSO) (Product No. D8418; Sigma-Aldrich, Saint Louis, MO, USA) was used as buffer. After 15 min of incubation at room temperature, samples were loaded into standard capillaries (Product No. MO-K022; NanoTemper Technologies) and analyzed at 25 °C with 20% excitation power and medium MST power (40%) using the “Binding Affinity” mode available in the MO.Control v1.6 software (NanoTemper Technologies GmbH, München, Germany). Prior to Kd determination, peptide auto-fluorescence was assessed. […] The “Capillary Scan” graphs, showing the fluorescence homogeneity in the capillaries of all biophysically tested peptides, are provided in the Supplementary Materials, Figure S5.

autophagic response = conditions: CRPC therapy; ref [39]; cited from earlier work
Source text: An important problem of tumor is represented by therapy resistance. In fact, in prostate cancer, numerous studies have investigated the implications of autophagy in resistance to hormonal therapies or chemotherapeutic agents. […] Docetaxel (Doc), a chemotherapeutic drug which inhibits microtubule depolymerization, represents the first-line treatment for metastatic CRPC. The treatment is effective in the early stages, but over time its efficacy is drastic ...

PC cells = conditions: with Doc; ref [49]; cited from earlier work
Source text: Many studies have analyzed the nature of autophagy activated by Doc in PC and the impact of autophagy inhibitors on cell proliferation. The results obtained using 3-Methyladenine (3-MA) in association with Doc were contradictory. […] A more convincing result was obtained using the autophagy inhibitor CQ which enhanced the action ...

Row | SMILES | Response Amplitude (RA) [1] | autophagic response (autophagic response) | other results
1 | CC[C@H](C)[C@H](NC(=O)[C@H](CC(=O)O)NC(=O)[C@H](Cc1ccc(I)cc1)NC(=O)[C@@H](NC(=O)[C@H](C)NC(=O)[C@@H](N)CC(=O)O)C(C)C)C(=O)N[C@H](C(=O)N[C@H](C(=O)N[C@@H](CC(=O)O)C(=O)N[C@@H](CCC(=O)O)C(=O)N[C@@H](CCC(=O)O)C(=O)N[C@@H](CC(C)C)C(=O)O)[C@@H](C)O)[C@@H](C)CC [AM2] | 7.8 |  | 
2 | CC[C@H](C)[C@H](NC(=O)[C@H](CC(=O)O)NC(=O)[C@H](Cc1ccccc1)NC(=O)[C@@H](NC(=O)[C@H](C)NC(=O)[C@@H](N)CC(=O)O)C(C)C)C(=O)N[C@H](C(=O)N[C@H](C(=O)N[C@H]1CSCc2ccc(cc2)CSC[C@@H](C(=O)O)NC(=O)[C@H](CCC(=O)O)NC(=O)[C@H](CCC(=O)O)NC1=O)[C@@H](C)O)[C@@H](C)CC [AM7] | 3.7 |  | aggregation at highest concentrations, in words ([2]; 125, 62.5 and 31.25 µM, MST capillary scan, PBS-T + 2.5% DMSO): the three highest concentration points (125, 62.5, and 31.25 µM) were discarded due to aggregation; also recorded: the three highest concentrations (125, 62.5, and 31.25 µM) were excluded from analysis due to aggregation phenomena; concentration at which aggregation is displayed ([2]; MST buffer PBS-T + 2.5% DMSO, 25 °C): ≥ 31.25 µM
3 | C[C@]12CC[C@H](O)CC1=CC[C@@H]1[C@@H]2CC[C@]2(C)C(c3cccnc3)=CC[C@@H]12 [Abiraterone] |  | activate an autophagic response that reduces their effectiveness | 
4 | CCN(CC)CCCC(C)Nc1ccnc2cc(Cl)ccc12 (stereo not shown) [CQ, Chloroquine] |  |  | effect on the action of Doc (PC cells): enhanced the action of Doc by reducing resistance to chemotherapy
5 | CNC(=O)c1ccc(N2C(=S)N(c3ccc(C#N)c(C(F)(F)F)c3)C(=O)C2(C)C)cc1F [Enzalutamide] |  | activate an autophagic response that reduces their effectiveness | 
